Data published in ChEMBL document CHEMBL5126520, “Recent research results have converted gp120 binders to a therapeutic option for the treatment of HIV-1 infection. A medicinal chemistry point of view” (Eur J Med Chem, 2022).
Starred links: 1 amine or outer side, 2 acyl side, 3 side chain; linkers in the order of their positions; H or OH if unused. Positions of bridges follow the written chain, without caps; N, C: chain ends. Non-standard residues stand in square brackets, D forms with d. Residues, ends and D or L forms follow the SMILES beside them. X1 = O=C([C@@H]1CC(n2cc(-c3ccc(-c4cccs4)cc3)nn2)CN1[*:1])[*:2]

Legend:
[1] = test system: Human immunodeficiency virus 1; test: Antiviral activity against HIV-1 Bal(R5) infected in human CEMx174 5.25M7 cells assessed as reduction in p24 antigen level preincubated for 30 mins followed by infection with cells and measured after 3 to 4 days by ELISA; type: functional, organism-based; settings: Human immunodeficiency virus 1, Bal(R5)
[2] = test system: Human immunodeficiency virus 1; test: Antiviral activity against HIV-1 IIIB(X4) infected in human MT2 cells assessed as reduction in p24 antigen level preincubated for 30 mins followed by infection with cells and measured after 3 to 4 days by ELISA; type: functional, organism-based; settings: Human immunodeficiency virus 1, IIIB(X4)
[3] = Cytotoxicity against human MT2 cells assessed as reduction in cell viability incubated for 4 days by XTT assay; type: toxicity, cell-based; settings: time 4 day
[4] = test system: Human immunodeficiency virus 1; test: Antiviral activity against HIV-1 IIIB infected in human MT2 cells assessed as reduction in p24 antigen level incubated for 1 hr by ELISA; type: functional, organism-based; settings: Human immunodeficiency virus 1, IIIB, MT2, 1 h
[5] = Selectivity index, ratio of CC50 for cytotoxicity against human MT2 cells to EC50 for antiviral activity against HIV-1 IIIB infected in human MT2 cells; type: toxicity, cell-based; settings: read-out: Ratio CC50/EC50
[6] = test system: Human immunodeficiency virus 1; test: Antiviral activity against HIV-1 pseudotyped virus expressing HXB-2 Env proteins infected in human TZM-bl cells assessed as inhibition of viral entry preincubated for 30 mins followed by infection with cells and measured after 3 days by luciferase based analysis; type: functional, organism-based; settings: Human immunodeficiency virus 1, TZM-bl
[7] = Selectivity index, ratio of CC50 for Cytotoxicity against human TZM-bl cells to EC50 for antiviral activity against HIV-1 pseudotyped virus expressing HXB-2 Env proteins infected in human TZM-bl cells; type: toxicity, cell-based; settings: read-out: Ratio CC50/EC50
[8] = test system: Human immunodeficiency virus 1; test: Antiviral activity against laboratory-adapted HIV-1 NL4-3 infected in human TZM-bl cells incubated for 2 days by luciferase based analysis; type: functional, organism-based; settings: Human immunodeficiency virus 1, NL4-3, TZM-bl, 48 h
[9] = test system: Human immunodeficiency virus 1; test: Antiviral activity against HIV-1 CH58TF infected in human TZM-bl cells assessed as neutralization viral infection pretreated for 1 hr followed by infection with cells and measured after 48 hrs by luciferase assay; type: functional, organism-based; settings: Human immunodeficiency virus 1, CH58TF
[10] = test system: Human immunodeficiency virus 1; test: Antiviral activity against HIV-1 JR-FL; type: functional, organism-based; settings: Human immunodeficiency virus 1, JR-FL
[11] = test system: Human immunodeficiency virus 1; test: Antiviral activity against HIV-1 YU-2 assessed as inhibition of viral entry; type: functional, organism-based; settings: Human immunodeficiency virus 1, YU-2
[12] = test system: Human immunodeficiency virus 1; test: Antiviral activity against HIV-1 IIIB infected in human MT2 cells assessed as inhibition of p24 production preincubated for 30 mins followed by infection with cells and measured after 4 days by ELISA; type: functional, organism-based; settings: Human immunodeficiency virus 1, IIIB
[13] = Cytotoxicity against human MT2 cells assessed as reduction in cell viability incubated for 4 days by MTS assay; type: toxicity, cell-based; settings: time 4 day
[14] = Cytotoxicity against human TZM-bl cells assessed as reduction in cell viability incubated for 3 days by MTS assay; type: toxicity, cell-based; settings: time 3 day
[15] = test system: Human immunodeficiency virus 1; test: Antiviral activity against HIV-1 IIIB(X4) infected in human CEMx174 5.25M7 cells assessed as inactivation of HIV-1 free virions by measuring p24 antigen level preincubated for 1 hr followed by infection with cells and measured after 3 to 4 days by ELISA; type: functional, organism-based; settings: Human immunodeficiency virus 1, IIIB(X4)
[16] = Cytotoxicity against human CEMx174 5.25M7 cells assessed as reduction in cell viability incubated for 48 hrs by CCK-8 assay; type: toxicity, cell-based
[17] = Cytotoxicity against human MT2 cells assessed as reduction in cell viability incubated for 48 hrs by CCK-8 assay; type: toxicity, cell-based
[18] = test system: Human immunodeficiency virus 1; test: Antiviral activity against HIV-1 Bal(R5) infected in human CEMx174 5.25M7 cells assessed as inactivation of HIV-1 free virions by measuring p24 antigen level preincubated for 1 hr followed by infection with cells and measured after 3 to 4 days by ELISA; type: functional, organism-based; settings: Human immunodeficiency virus 1, Bal(R5)
[19] = molecular target: Envelope glycoprotein gp160 (Human immunodeficiency virus 1, UniProt Q6QLK5); test: Inhibition of HIV1 gp120 interaction with CD4 pretreated for 1 hr followed by TMB substrate addition and measured after 10 mins by ELISA
[20] = test system: Human immunodeficiency virus 1; test: Antiviral activity against HIV-1 Bal.01 infected in HOS.T4.R5 cells preincubated for 45 mins followed by infection with cells and measured 24 hrs post infection by luminescence based analysis; type: functional, organism-based; settings: Human immunodeficiency virus 1, Bal.01, HOS.T4.R5
[21] = Cytotoxicity against HOS.T4.R5 cells assessed as reduction in cell viability incubated for 24 hrs by WST-1 assay; type: toxicity, cell-based; settings: human

Chain of Envelope glycoprotein gp160 (Q6QLK5 whole entry): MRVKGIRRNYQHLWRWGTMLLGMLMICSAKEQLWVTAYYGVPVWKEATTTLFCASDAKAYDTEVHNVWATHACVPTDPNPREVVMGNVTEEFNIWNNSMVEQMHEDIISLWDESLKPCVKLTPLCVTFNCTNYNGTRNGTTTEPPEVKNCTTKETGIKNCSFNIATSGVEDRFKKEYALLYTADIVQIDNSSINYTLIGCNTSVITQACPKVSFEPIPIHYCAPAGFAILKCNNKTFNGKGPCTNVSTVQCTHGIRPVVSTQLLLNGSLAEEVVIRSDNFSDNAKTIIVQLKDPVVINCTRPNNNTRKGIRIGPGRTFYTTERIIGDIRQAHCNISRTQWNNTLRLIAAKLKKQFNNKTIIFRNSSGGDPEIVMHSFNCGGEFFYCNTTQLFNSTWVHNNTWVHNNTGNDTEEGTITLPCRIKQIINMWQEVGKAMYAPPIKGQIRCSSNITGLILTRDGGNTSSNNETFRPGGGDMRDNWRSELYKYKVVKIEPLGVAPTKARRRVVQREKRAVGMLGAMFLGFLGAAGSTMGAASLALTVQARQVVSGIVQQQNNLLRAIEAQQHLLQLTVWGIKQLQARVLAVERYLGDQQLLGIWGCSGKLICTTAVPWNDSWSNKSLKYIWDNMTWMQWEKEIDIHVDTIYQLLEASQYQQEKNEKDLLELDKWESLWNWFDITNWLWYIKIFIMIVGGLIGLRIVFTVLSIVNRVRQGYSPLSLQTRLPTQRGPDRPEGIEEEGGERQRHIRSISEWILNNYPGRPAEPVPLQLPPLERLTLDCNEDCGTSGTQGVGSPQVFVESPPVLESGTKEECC

CC1(C)CC(NC(=O)C(=O)Nc2ccc(Cl)c(F)c2)CC(C)(C)N1
IC50 [1]: 0.83 µM
IC50 [2]: 0.83 µM

CC1(C)CC(NC(=O)C(=O)Nc2ccc(Cl)cc2)CC(C)(C)N1
CC50 at 96 h [3]: > 280 µM
EC50 [4]: 6.5 µM
selectivity ratio [5]: > 43
EC50 [6]: 6.9 µM
selectivity ratio [7]: 8.7

COc1ccnc2[nH]cc(C(=O)C(=O)N3CCN(C(=O)c4ccccc4)C[C@H]3C)c12
EC50 [8]: 2.2 µM

NCCNC(=O)N1CCC[C@H](C(=O)Nc2ccc(Cl)c(F)c2)C1
EC50 [9]: 7 µM

CCOC(=O)N1CCC[C@H](C(=O)Nc2ccc(Cl)c(F)c2)C1
EC50 [10]: 18 µM

CNCc1ccc2c(c1)[C@H](NC(=O)C(=O)Nc1ccc(Cl)c(F)c1)[C@@H](CNC(=N)N)C2
EC50 [11]: 1.6 µM

CN(Cc1ccc2c(c1)[C@H](NC(=O)C(=O)Nc1ccc(Cl)c(F)c1)[C@@H](CNC(=N)N)C2)C(=N)N
EC50 [11]: 1.3 µM
EC50 [9]: 0.11 µM

CNCc1ccc2c(c1)[C@@H](CC[C@@H](O)CO)[C@H](CNC(=N)N)[C@H]2NC(=O)C(=O)Nc1ccc(Cl)c(F)c1
EC50 [10]: 22 µM

COc1cnc(-c2csc(CN(C)CCCN(C)C)n2)c2[nH]cc(C(=O)C(=O)N3CCC([C@@H](C#N)c4ccccc4)CC3)c12
EC50 [8]: 0.02 µM

O=C(O)c1cc(-c2ccc(/C=C3\SC(=S)N(CCc4ccc(O)cc4)C3=O)o2)ccc1Cl
IC50 [1]: 0.83 µM
IC50 [2]: 0.83 µM

Cc1nc(C(CN)NC(=O)c2ccc(-c3ccc4c(c3)OCO4)[nH]2)sc1CO (stereo unspecified)
EC50 [12]: 3.8 µM
CC50 at 96 h [13]: 193 µM
selectivity ratio [5]: 51
EC50 [6]: 2.3 µM
CC50 at 72 h [14]: 146 µM
selectivity ratio [7]: 63

CC1(C)CC(NC(=O)C(=O)Nc2ccc(Cl)c(F)c2)CC(C)(C)N1C(=O)COc1ccc(CCN2C(=O)/C(=C/c3ccc(-c4ccc(Cl)c(C(=O)O)c4)o3)SC2=S)cc1
IC50 [15]: 0.71 µM
CC50 at 48 h [16]: 18 µM
CC50 at 48 h [17]: 29 µM
IC50 [18]: 0.66 µM

COc1ccnc2[nH]cc(C(=O)C(=O)N3CCN(C(=O)c4ccccc4)CC3)c12
IC50 [19]: 0.0015 µM

CC[C@H](C)[C@@H]1NC(=O)[C@H](CC(N)=O)NC(=O)[C@@H](N)CC(=O)NCCCC[C@@H](C(N)=O)NC(=O)[C@H](Cc2c[nH]c3ccccc23)NC(=O)[C@@H]2CC(n3cc(-c4ccc(-c5cccs5)cc4)nn3)CN2C1=O (stereo partly specified) (H-DNI[X1]WK-NH2; lactam 1-6)
EC50 [20]: 0.105 µM
CC50 at 24 h [21]: 100 µM

CCOC(=O)N1CCCC(C(=O)Nc2ccc(Cl)c(F)c2)C1 (racemic)
EC50 [10]: 8.3 µM
